The values that follow are results of earlier work, collected in US20080317886A1, “Compositions for Preventing and Reducing Delayed Onset Muscle Soreness” (priority 2005, published 2008).

Data set [1] has as its system perceived muscle soreness. To be noted: downhill running protocol.
The conditions of data set [2]: HMB with 75 g glucose in water compared with HMB with water.
Another data set relates to muscle damage (CPK, LDH). To be noted: 3 g HMB per day, six weeks of training, 20 km run; compared to placebo.
Data set [3] has as its system muscle damage (blood CPK). To be noted: men and women, 4-week weight training program.
In data set [4] the test system is delayed onset muscle soreness. As to conditions: six days supplementation with 40 mg/kg HMB, single bout of exercise.
For data set [5] the following is noted: "in as little as".
Data set [6] relates to muscle catabolism (3-methylhistidine). As to conditions: intense resistance-weight training.

With beta-hydroxy-beta-methylbutyrate [HMB], in data set [1], the perceived muscle soreness entry is “reduced” and the strength loss result is “less strength loss”. Further, in data set [2], the “HMB excreted in the urine” value is recorded as “less” and the “plasma HMB levels” value is on record as “lower”. Moreover, in the data set on muscle damage (CPK, LDH), the “blood levels of CPK after the run” value is given as “reduced levels” and the “blood levels of LDH after the run” value is on record as “reduced levels”. For the same substance, the “decrease in blood CPK levels” value in data set [3] is given as 2%. Further, the DOMS result in data set [4] is “did not reduce”. Moreover, in data set [5], the “time to increase of plasma levels” value was 30 min. Further, the “plasma 3-MH” value in data set [6] is on record as “significant decrease”.
